Data as given in ChEMBL document CHEMBL1201862, “PubChem BioAssay data set” (2004).
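Grown in 96-well plates, cells were treated for 48 hours with each compound at five concentrations. Insufficient inhibition: endpoint recorded as highest concentration tested. The concentration for 50% growth inhibition is given as GI50.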 Activity calls are given as the source filed them. Rule as the data show it: active = GI50 up to about 1.1 µM and inactive = higher.

Legend:
Test in all cases: NCI anticancer screen, dose series, 48 h
[1] = test system: XF498
[2] = test system: DMS-273
[3] = test system: DLD-1
[4] = test system: SNB-78
[5] = test system: LXFL 529
[6] = test system: HOP-18
[7] = test system: KM-20L2
[8] = test system: DMS-114
[9] = test system: RXF 631

Compound | GI50 [1] | GI50 [2] | GI50 [3] | GI50 [4] | GI50 [5] | GI50 [6] | GI50 [7] | GI50 [8] | GI50 [9]
COc1cc2c3c(c1OC)C(=O)C=C3N(S(=O)(=O)c1ccc(C)cc1)CC2 | 72.9 µM (inactive) | > 100 µM (inactive) | > 100 µM (inactive) | > 100 µM (inactive) | > 100 µM (inactive) | > 100 µM (inactive) | > 100 µM (inactive) | > 100 µM (inactive) | –
Cc1ccc(NC(=O)CCc2nnc(N)o2)cc1 | > 100 µM (inactive) | > 100 µM (inactive) | > 100 µM (inactive) | > 100 µM (inactive) | > 100 µM (inactive) | – | > 100 µM (inactive) | > 100 µM (inactive) | > 31.6 µM (inactive)
CN1C(=O)c2cccc3c([N+](=O)[O-])ccc(c23)C1=O | – | 4.23 µM (inactive) | 2.82 µM (inactive) | 14 µM (inactive) | 1.46 µM (inactive) | 17.1 µM (inactive) | 5.7 µM (inactive) | 4.1 µM (inactive) | 2.58 µM (inactive)
Cc1ccc(S(=O)(=O)ON/N=C2/C3OC3[C@@H]3CCCC[C@H]23)cc1 (stereo not given in full) | > 100 µM (inactive) | > 100 µM (inactive) | > 100 µM (inactive) | – | > 100 µM (inactive) | > 100 µM (inactive) | > 100 µM (inactive) | – | –
C#CCSc1nc(N)c2ncn(C3OC(COP(=O)(O)O)C(O)C3O)c2n1 (stereo not given) | > 239 µM (inactive) | > 239 µM (inactive) | > 239 µM (inactive) | > 239 µM (inactive) | – | > 239 µM (inactive) | > 239 µM (inactive) | – | –
O=C(O)/C=C/n1c2ccccc2c(=O)c2ccccc21 | > 100 µM (inactive) | > 100 µM (inactive) | > 100 µM (inactive) | > 100 µM (inactive) | – | – | > 100 µM (inactive) | > 100 µM (inactive) | > 100 µM (inactive)
Nc1ccc(C2=Nc3ccccc3SC(c3ccccc3O)C2)cc1 (stereo not given) | 16.3 µM (inactive) | 54.5 µM (inactive) | 34.1 µM (inactive) | – | 22 µM (inactive) | > 100 µM (inactive) | > 100 µM (inactive) | 15.7 µM (inactive) | 68.2 µM (inactive)
CCOC(=O)C1=C(O)C(=O)c2cc(OC)ccc2C1=O | – | > 100 µM (inactive) | > 100 µM (inactive) | > 100 µM (inactive) | – | 4.51 µM (inactive) | > 100 µM (inactive) | > 100 µM (inactive) | –
Nc1ncnc2c1ncn2C1OC(CSC(F)F)C(O)C1O (stereo not given) | – | > 100 µM (inactive) | > 100 µM (inactive) | > 100 µM (inactive) | > 100 µM (inactive) | > 100 µM (inactive) | > 100 µM (inactive) | > 100 µM (inactive) | > 100 µM (inactive)
CC(=O)Nc1ccc(C(=O)NN2C(=O)C(Cl)C2c2ccc([N+](=O)[O-])cc2)cc1 (stereo not given) | > 100 µM (inactive) | > 100 µM (inactive) | – | > 100 µM (inactive) | > 100 µM (inactive) | – | > 100 µM (inactive) | – | –
NC(CCC(=O)NC(CSC(=O)N(O)c1ccccc1)C(=O)NCC(=O)O)C(=O)O (stereo not given) | – | > 1000 µM (inactive) | > 1000 µM (inactive) | > 1000 µM (inactive) | > 1000 µM (inactive) | – | > 1000 µM (inactive) | > 1000 µM (inactive) | –
CCOC(=O)C1C(=O)C(=O)N2CCc3c([nH]c4ccccc34)C12 (stereo not given) | – | – | > 100 µM (inactive) | – | > 100 µM (inactive) | – | > 100 µM (inactive) | > 100 µM (inactive) | –
COc1ccc(/C(Cl)=C(\C=O)c2ccc(Br)cc2)cc1OC | 9.33 µM (inactive) | > 100 µM (inactive) | > 100 µM (inactive) | 25.4 µM (inactive) | > 100 µM (inactive) | 48.4 µM (inactive) | > 100 µM (inactive) | – | > 62.4 µM (inactive)
CCOC(=O)NC(=O)c1cn(CCN2CCNCC2)c(=O)[nH]c1=O | > 100 µM (inactive) | – | > 100 µM (inactive) | > 100 µM (inactive) | > 100 µM (inactive) | > 100 µM (inactive) | – | > 100 µM (inactive) | –
O=S1(=O)CS(=O)(=O)OCCCCCO1 | – | > 100 µM (inactive) | > 100 µM (inactive) | > 100 µM (inactive) | > 100 µM (inactive) | > 100 µM (inactive) | > 100 µM (inactive) | > 100 µM (inactive) | > 100 µM (inactive)
C[N+]1(C)C/C(=C\c2ccc(O)cc2)C(=O)/C(=C/c2ccc(O)cc2)C1 | – | 53 µM (inactive) | 49.7 µM (inactive) | > 100 µM (inactive) | 60.5 µM (inactive) | > 100 µM (inactive) | 61.4 µM (inactive) | 21.4 µM (inactive) | –
C=C(CN(C)C)C(=O)c1ccc(C)cc1C | 12 µM (inactive) | 18.2 µM (inactive) | 3.88 µM (inactive) | 22.9 µM (inactive) | 12.5 µM (inactive) | 16 µM (inactive) | 19.9 µM (inactive) | 21.6 µM (inactive) | 20.4 µM (inactive)
COc1ccc(CNc2cnc3cc(N)ccc3n2)cc1OC | – | > 100 µM (inactive) | > 100 µM (inactive) | – | – | – | – | > 100 µM (inactive) | –
Cc1c(C(=O)c2ccccc2C(=O)O)c2ccccc2n1C | > 100 µM (inactive) | > 100 µM (inactive) | > 100 µM (inactive) | > 100 µM (inactive) | > 100 µM (inactive) | – | > 100 µM (inactive) | > 100 µM (inactive) | –
CC(C)(C)C#COC(=O)c1ccccc1 | – | – | > 100 µM (inactive) | > 100 µM (inactive) | > 100 µM (inactive) | – | > 100 µM (inactive) | > 100 µM (inactive) | –
FC(F)(F)c1ccc2nc(NCc3ccccc3)c(-c3ccccc3)nc2c1 | 15.1 µM (inactive) | 35.2 µM (inactive) | – | 38.9 µM (inactive) | 43.3 µM (inactive) | 35.4 µM (inactive) | 29.5 µM (inactive) | – | –
Cc1ccc(/C=C(\C#N)c2ccccc2)cc1 | – | > 100 µM (inactive) | > 100 µM (inactive) | > 100 µM (inactive) | > 100 µM (inactive) | > 100 µM (inactive) | > 100 µM (inactive) | > 100 µM (inactive) | –
C[C@H]1[C@H](C)CC[C@]2(C(=O)O)CCC3(COC(=O)/C=C/c4ccc(O)cc4)C(=CCC4[C@@]5(C)CC[C@H](O)C(C)(C)C5CC[C@]43C)[C@H]12 (stereo not given in full) | – | 4.76 µM (inactive) | 3.39 µM (inactive) | 43.8 µM (inactive) | 3.83 µM (inactive) | 18.3 µM (inactive) | 4.83 µM (inactive) | 3.72 µM (inactive) | 7.55 µM (inactive)
CC(=O)OC1C[C@H]2C(OC(=O)c3ccccc3)C3C4(OC(C)=O)COC4C[C@H](OC(C)=O)[C@@]3(C)C(OC(C)=O)[C@H](OC(C)=O)C(=C1C)C2(C)C (stereo not given in full) | 19.8 µM (inactive) | 24.9 µM (inactive) | 32.7 µM (inactive) | 37.9 µM (inactive) | 22.3 µM (inactive) | 20.1 µM (inactive) | 59 µM (inactive) | 22.2 µM (inactive) | –
CC(C)C(CCOS(=O)(=O)O)CCC(C)[C@H]1[C@@H](O)C(O)C2[C@]3(O)C[C@@H](O)C4(O)C[C@@H](O)CC[C@]4(C)C3CC[C@@]21C (stereo not given in full) | > 100 µM (inactive) | > 100 µM (inactive) | > 100 µM (inactive) | > 100 µM (inactive) | > 100 µM (inactive) | > 100 µM (inactive) | > 100 µM (inactive) | > 100 µM (inactive) | –
O=C1c2ccsc2C(=O)c2sc(CO)cc21 | 0.352 µM (active) | 0.0327 µM (active) | 0.176 µM (active) | 0.322 µM (active) | 0.161 µM (active) | 0.0349 µM (active) | 0.182 µM (active) | – | –
C/C(=N\NC(=S)N1CCCCCC1)c1ccccn1 | 0.0014 µM (active) | < 0.001 µM (active) | < 0.001 µM (active) | 0.741 µM (active) | < 0.001 µM (active) | 0.123 µM (active) | < 0.001 µM (active) | < 0.001 µM (active) | 0.0386 µM (active)
Cc1c2cc[n+](C)cc2c(C)c2c1[nH]c1ccc(Oc3ccccc3)cc12 | – | 0.596 µM (active) | 0.906 µM (active) | – | 0.282 µM (active) | – | 1.14 µM (inactive) | – | –
c1ccc2nc(-c3ccc4c(c3)OCO4)ccc2c1 | – | 26.2 µM (inactive) | – | 77.6 µM (inactive) | 22.5 µM (inactive) | – | 39.6 µM (inactive) | 23.4 µM (inactive) | –
